The record followed here is ChEMBL document CHEMBL5360530, “Structure activity relationship (SAR) and anticancer activity of pyrrolidine derivatives: Recent developments and future prospects (A review)” (Eur J Med Chem, 2023).

Data set [1] has as its system P388. The data set can be described thus: Anticancer activity against P388 cells assessed as cell growth inhibition. Format: functional, cell-based. As to conditions: Mus musculus.
Data set [2] deals with MCF7. The data set can be described thus: Anticancer activity against human MCF7 cells assessed as cell growth inhibition at 50 uM measured after 48 hrs by MTT assay relative to control. Format: functional. (In general: Tetrazolium dyes change colour on reduction, which living cells bring about.)
Data set [3] has as its system COS-7. The data set can be described thus: Anticancer activity against COS-7 cells assessed as cell growth inhibition at 50 uM measured after 48 hrs by MTT assay relative to control. The class given is functional. As to conditions: Chlorocebus aethiops.
Data set [4] concerns MCF7. The data set can be described thus: Anticancer activity against human MCF7 cells assessed as cell growth inhibition measured after 48 hrs by MTT assay. The class given is functional, cell-based. The note with it: MCF7, 48 h.
The test system of data set [5] is MCF7. The data set can be described thus: Anticancer activity against human MCF7 cells assessed as cell growth inhibition measured after 48 hrs by WST-1 assay. Format: functional, cell-based. The note with it: MCF7, 48 h.
The subject of data set [6] is HT-29. The data set can be described thus: Anticancer activity against human HT-29 cells assessed as cell growth inhibition measured after 24 hrs by MTT assay. The class given is functional, cell-based. The note with it: HT-29, 24 h.
The test system of data set [7] is MCF7. The data set can be described thus: Anticancer activity against human MCF7 cells assessed as cell growth inhibition by MTT assay. Format: functional, cell-based.
Data set [8] deals with A549. The data set can be described thus: Anticancer activity against human A549 cells assessed as cell growth inhibition by MTT assay. The class given is functional, cell-based.
Data set [9] relates to A549. The data set can be described thus: Anticancer activity against human A549 cells assessed as cell viability at 100 ug/ml measured after 24 hrs by MTT assay relative to control. As to conditions: read-out: Activity. Format: functional.
Data set [10] deals with A549. The data set can be described thus: Anticancer activity against human A549 cells assessed as cell viability at 50 ug/ml measured after 24 hrs by MTT assay relative to control. As to conditions: read-out: Activity. The class given is functional.
Data set [11] relates to A549. The data set can be described thus: Anticancer activity against human A549 cells assessed as cell viability measured after 24 hrs by MTT assay. The class given is functional, cell-based. The note with it: A549, 24 h.
Data set [12] deals with MCF7. The data set can be described thus: Anticancer activity against human MCF7 cells assessed as cell growth inhibition measured after 24 hrs by SRB assay. Format: functional, cell-based. As to conditions: MCF7, 24 h.
For data set [13], the system named is HCT-116. The data set can be described thus: Anticancer activity against human HCT-116 cells assessed as cell growth inhibition measured after 24 hrs by SRB assay. The class given is functional, cell-based. As to conditions: HCT-116, 24 h. For orientation: Sulforhodamine B stains cellular protein and so reports cell mass.
Data set [14] concerns HepG2. The data set can be described thus: Anticancer activity against human HepG2 cells assessed as cell growth inhibition measured after 24 hrs by SRB assay. The class given is functional, cell-based. The note with it: HepG2, 24 h.
Data set [15] relates to K562. The data set can be described thus: Anticancer activity against human K562 cells assessed as cell growth inhibition measured after 48 hrs by WST-1 assay. Format: functional, cell-based. As to conditions: K562, 48 h.
Data set [16] has as its system A549. The data set can be described thus: Anticancer activity against human A549 cells assessed as cell growth inhibition measured after 72 hrs by CCK-8 assay. Format: functional, cell-based. As to conditions: A549, 72 h.
The subject of data set [17] is HCT-116. The data set can be described thus: Anticancer activity against human HCT-116 cells assessed as cell growth inhibition measured after 72 hrs by CCK-8 assay. The class given is functional, cell-based. As to conditions: HCT-116, 72 h.
For data set [18], the system named is MDA-MB-231. The data set can be described thus: Anticancer activity against human MDA-MB-231 cells assessed as cell growth inhibition measured after 72 hrs by CCK-8 assay. The class given is functional, cell-based. The note with it: MDA-MB-231, 72 h.
Data set [19] relates to SH-SY5Y. The data set can be described thus: Anticancer activity against human SH-SY5Y cells assessed as cell death upto 1000 ug/ml measured upto 72 hrs by MTT assay relative to control. Format: functional. The note with it: dose <= 1000 µg/ml, up to 1000 µg/mL.
Data set [20] has as its system HT-29. The data set can be described thus: Anticancer activity against human HT-29 cells assessed as cell death upto 1000 ug/ml measured upto 72 hrs by MTT assay relative to control. The note with it: dose <= 1000 µg/ml, up to 1000 µg/mL. The class given is functional.
For data set [21], the system named is A549. The data set can be described thus: Anticancer activity against human A549 cells assessed as cell growth inhibition measured after 24 hrs by MTT assay. Format: functional, cell-based. As to conditions: A549, 24 h.
The test system of data set [22] is HeLa. The data set can be described thus: Anticancer activity against human HeLa cells assessed as cell growth inhibition measured after 48 hrs by MTT assay. The class given is functional, cell-based.
Data set [23] has as its system HT-29. The data set can be described thus: Anticancer activity against human HT-29 cells assessed as cell growth inhibition measured after 48 hrs by MTT assay. Format: functional, cell-based. As to conditions: HT-29, 48 h.
The subject of data set [24] is K562. The data set can be described thus: Anticancer activity against human K562 cells assessed as cell growth inhibition measured after 48 hrs by MTT assay. Format: functional, cell-based. The note with it: K562, 48 h.
Data set [25] has as its system HT-29. The data set can be described thus: Anticancer activity against human HT-29 cells xenografted with BALB/c mouse assessed as tumor growth inhibition at 50 mg/kg, iv measured twice daily for 20 days relative to control. As to conditions: HT-29, 480 h, time 20 day, read-out: TGI. Format: functional. (In general: In xenograft studies the graft and the host belong to different species.)

Data set [26] concerns HT-29. The data set can be described thus: Anticancer activity against human HT-29 cells xenografted with BALB/c mouse assessed as tumor growth inhibition at 50 mg/kg, po measured twice daily for 20 days relative to control. The class given is functional. As to conditions: HT-29, 480 h, time 20 day, read-out: TGI.
The test system of data set [27] is Jurkat. The data set can be described thus: Anticancer activity against human Jurkat cells assessed as cell growth inhibition measured after 48 hrs by MTT assay. The class given is functional, cell-based.
Data set [28] deals with HCT-116. The data set can be described thus: Anticancer activity against human HCT-116 cells assessed as cell growth inhibition measured after 48 hrs by MTT assay. The note with it: HCT-116, 48 h. Format: functional, cell-based.
A short description of data set [29]: Cytotoxicity against human Adipose tissue derived mesenchymal stem cell assessed as cell growth inhibition measured after 48 hrs by MTT assay. Format: toxicity, cell-based. As to conditions: adipose tissue derived mesenchymal stem cells.
Data set [30] concerns M-HeLa. The data set can be described thus: Anticancer activity against human HelaM cells assessed as cell growth inhibition measured after 24 hrs by DAPI and propidium iodide staining based assay. The class given is functional.
The nature of data set [31]: Cytotoxicity against human Chang liver cells assessed as cell growth inhibition measured after 24 hrs by DAPI and propidium iodide staining based assay. Format: toxicity.
Data set [32] concerns M-HeLa. The data set can be described thus: Induction of apoptosis in human HelaM cells upto 100 uM measured after 24 hrs relative to control. Format: functional. As to conditions: up to 100 µM.

In brackets after ≈: the same amount, converted by molar mass. Square brackets hold non-standard residues; d marks the D form. Peptide text beside a SMILES is read from it. * marks the point of attachment. ξ: configuration not given here. X2 = CC[C@H](C)[C@@H](CN[C@@H](Cc1ccccc1)C(=O)OC)N*; X1 = O=C(OC(C(F)(F)F)C(F)(F)F)*; ξP = O=C(O)C1CCCN1

For the compound `O=C(/C=C/c1ccc(O)cc1)N1CCCC1`, in data set [1], the IC50 (in general, the concentration at which inhibition is half-maximal) was 11.3 µg/mL (≈ 52.2 µM).
Regarding `O=C1Nc2ccccc2C12CCNC2c1ccccc1` (centres undefined), the results for the inhibition at 50 µM in data set [2] and in data set [3] were 25.2% and 0.51%, respectively.
As for `O=c1[nH]cc(F)c(=O)[nH]1` [FLUOROURACIL], the concentration for half-maximal inhibition (IC50) in data set [4] was 45 µM; in data set [5], 78.3 µM; in data set [6], 80.6 µM; in data set [7], 45 µM.
Turning to `N#C[C@@H]1CCCN1C(=O)Cc1noc2ccccc12`, the IC50 in [8] came to 90.3 µM; in data set [7] it was 2.36 µM.
For the compound `CCOC(=O)[C@H]1CCCN1C(=O)Cc1noc2ccccc12`, the IC50 in data set [8] came to 361 µM.
On to `O=C1CCC(=O)N1CN(Cc1ccccc1)Cc1ccccc1`, for which, in data set [9], the viability at 100 µg/mL stood at 72%. In addition, the viability at 50 µg/mL in [10] was 78.8%. Also, the IC50 in data set [11] amounted to 176 µg/mL (≈ 572 µM).
Regarding `COc1cccc2c1C(=O)c1c(O)c3c(c(O)c1C2=O)C[C@@](O)(C(=O)CO)C[C@@H]3O[C@H]1C[C@H](N)[C@H](O)[C@H](C)O1` [DOXORUBICIN], the half-maximal inhibitory concentration (IC50) in [12] came to 4.89 µM; in data set [13], 7.03 µM; in data set [14] it was 5.59 µM.
As for `O=C(/C=C/c1ccc(O)c(O)c1)N1CCCC1`, the IC50 in data set [1] came to 53.5 µg/mL (≈ 229 µM).
For the compound `O=C1/C(=C/c2ccc(Br)cc2)CCC[C@]12[C@@H](c1ccc(Br)cc1)[C@@H]1CSCN1[C@]21C(=O)Nc2ccccc21`, the IC50 in [5] is 15.3 µM; in data set [15] it was 14.7 µM.
Consider `OC(CN1CCCCC1)Cn1c2ccc(Cl)cc2c2cc(Cl)ccc21` (centres undefined), for which the IC50 in [16], in data set [17] and in data set [18] was 6 µM in each case.
For the compound `CCn1c2ccccc2c2cc(NC(=O)CCN3CCCC3)ccc21`, the values for the Activity in [19] and in data set [20] were 61% and 66%, respectively.
Take `COc1ccc([C@@H]2[C@H]([N+](=O)[O-])[C@H](Cc3ccc(O)cc3)NC23C(=O)c2cccc4cccc3c24)cc1` (some centres undefined): the IC50 in data set [21] was found to be 96.5 µM.
With `CC[C@H](C)[C@@H](CN[C@@H](Cc1ccccc1)C(=O)OC)NC(=O)[C@@H]1CCCN1C(=O)[C@H](CC(C)C)NC(=O)[C@@H]1CCCN1C(=O)[C@H](CC(C)C)NC(=O)OC(C(F)(F)F)C(F)(F)F` (X1-LPLP-X2), the IC50 in [22] amounted to 4.3 µM.
For `COc1ccc(/C=C2\CCC[C@@]3(C2=O)[C@@H](c2ccc(OC)cc2)[C@@H]2CSCN2[C@]32C(=O)Nc3ccccc32)cc1`, the values for the IC50 in data set [5] and in [15] were 24.4 µM and 14.7 µM, respectively.
On to `Cc1ccc(C2CC(c3ccc(F)cc3)=NN2C(=O)CN2C(=O)CCC2=O)cc1` (centres undefined), for which the concentration for half-maximal inhibition (IC50) in data set [4] stood at 0.07 µM; in data set [23] it was 0.92 µM; in data set [24], 47.2 µM. Besides, the inhibition in vivo at 50 mg/kg in [25] was 66%; in [26], 60%.
As for `NC(=O)[C@@H]1CCCN1C(=O)Cc1noc2ccccc12`, the IC50 was found to be 4.72 µM in [8] and 4.39 µM in data set [7].
`O=C1C2=CC=CC3C=CC=C(C23)C12N[C@@H](Cc1ccc(O)cc1)[C@@H]([N+](=O)[O-])[C@H]2c1ccc(Cl)cc1` (some centres undefined): the half-maximal inhibitory concentration (IC50) in data set [21] turned out to be 40.2 µM; in [27], 33.6 µM.
As for `CCCCNCC(O)Cn1c2ccc(Cl)cc2c2cc(Cl)ccc21` (centres undefined), the IC50 in data set [16] was found to be 6 µM; in [17] it was 6.5 µM; in data set [18], 7.5 µM.
For `CC[C@H](C)[C@H](NC(=O)OC(C(F)(F)F)C(F)(F)F)C(=O)N[C@@H](CC(C)C)C(=O)N1CCCC1C(=O)N[C@@H](CC(C)C)C(=O)N[C@H](C(=O)OC)C(C)C` (some centres undefined) (X1-IL[ξP]LV-OMe), the IC50 in data set [22] is 2.73 µM.
Consider `O=C1C2=CC=CC3C=CC=C(C23)C12N[C@@H](Cc1ccc(O)cc1)[C@@H]([N+](=O)[O-])[C@H]2c1ccc(Br)cc1` (some centres undefined), for which the IC50 amounted to 65.7 µM in data set [21] and 33.1 µM in data set [27].
In the case of `O=C1CCC(=O)N1c1ccc(O)cc1`, the IC50 in [28] amounted to 1.74 µM; in data set [23] it was 1.03 µM. Besides, the concentration for half-maximal inhibition (IC50) at 48 h in data set [29] came to 1.32 µM.
For `Oc1cc2c(cc1C1CCCCC1)OCO2`, the IC50 in data set [30] stood at 14.7 µM. The IC50 at 24 h in [31] was more than 100 µM. The compound further gave an Activity in data set [32] of 25%.
